29 compounds from patent US20140024662A1, “COMPOUNDS, SCREENS, AND METHODS OF TREATMENT” (Shanghai Institute of Organic Chemistry, priority 2006, published 2014) can be followed below.

Structures are written as SMILES.

One test relates to FADD-deficient Jurkat cells. Kind of test: necroptosis assay: FADD-deficient Jurkat cells treated with TNFα, cell viability. It is filed as cell-based, human. Particulars: FADD-deficient Jurkat cells treated with TNFα; call rule not given here. The text has this:
Herein we describe the structure activity analysis of Nec-5 analogs.
With `N#CCSc1nc2sc3c(c2c(=O)n1-c1ccc(OC(F)(F)F)cc1)CCC3` [Compound 167], the “activity in the necroptosis assay, in words” value was “showed some, albeit greatly reduced, activity”.

The test is the same for the next values; noted with them: effective concentration for half-maximum response; inhibition of necroptosis in FADD-deficient Jurkat cells treated with TNFα.
For orientation: EC50 means the concentration giving half of the maximal effect. For `CSc1nc2sc3ccccc3c2c(=O)n1-c1ccc2c(c1)OCO2` [Compound 152], the concentration for a half-maximal effect (EC50) entry was “inactive”.

With `CSc1nc2sc3ccccc3c2c(=O)n1-c1ccc(OC(F)(F)F)cc1` [Compound 153], the EC50 result was “inactive”.

Regarding `Cc1sc2nc(SCC#N)n(-c3ccc(OCc4ccccc4)cc3)c(=O)c2c1C` [Compound 155], the EC50 entry was “inactive”. Same read-out and setting: the same measure for `Cc1sc2nc(SCC#N)n(-c3ccc(N(C)C)cc3)c(=O)c2c1C` [Compound 157]: “inactive”; for `CCOc1ccc(-n2c(SC)nc3sc(C)c(C)c3c2=O)cc1` [Compound 158]: “inactive”; for `CSc1nc2sc(C)c(C)c2c(=O)n1-c1ccc(OCc2ccccc2)cc1` [Compound 159]: “inactive”. Consider `CSc1nc2sc(C)c(C)c2c(=O)n1-c1ccc(OC(F)(F)F)cc1` [Compound 160], for which the EC50 result is “inactive”. Still for that read-out and setting: as for `CSc1nc2sc(C)c(C)c2c(=O)n1-c1ccc(N(C)C)cc1` [Compound 161], the entry is “inactive”; as for `N#CCSc1nc2sccc2c(=O)n1-c1ccccc1` [Compound 162], “inactive”; as for `N#CCSc1nc2sc3c(c2c(=O)n1-c1ccccc1)CCC3` [Compound 163], “inactive”. With `CCOc1ccc(-n2c(SCC#N)nc3sc4c(c3c2=O)CCC4)cc1` [Compound 164], the EC50 entry is “inactive”. On the same count and under the same terms, the same measure for `N#CCSc1nc2sc3c(c2c(=O)n1-c1ccccc1)CCCCC3` [Compound 165]: “inactive”. The same measure, in the same setting: as for `COc1ccc(-n2c(SCC#N)nc3sc4c(c3c2=O)CCC(C)C4)cc1OC` (stereo not drawn) [Compound 166], the entry is “inactive”. Still for that read-out and setting: the same measure for `N#CCSc1nc2sc3c(c2c(=O)n1-c1ccc(OC(F)(F)F)cc1)CCCCC3` [Compound 168]: “inactive”.

`COc1ccc(-n2c(SCC#N)nc3sc4c(c3c2=O)CCC4)cc1OC` [Compound 169]: the EC50 result was “inactive”. Regarding `C=CCSc1nc2sc3c(c2c(=O)n1-c1ccccc1)CCCC3` [Compound 170], the EC50 result was “inactive”. Same read-out and setting: as for `O=c1c2c3c(sc2nc(SCc2ccccc2)n1-c1ccccc1)CCCC3` [Compound 171], the entry is “inactive”; as for `CSc1nc2sccc2c(=O)n1-c1ccccc1` [Compound 173], “inactive”.

Regarding `COc1ccc(-n2c(SC)nc3sc4c(c3c2=O)CCC(C)C4)cc1OC` (stereo not drawn) [Compound 174], the EC50 entry was “inactive”. On the same count and under the same terms, as for `CCSc1nc2sc3c(c2c(=O)n1-c1ccccc1)CCCCC3` [Compound 175], the entry is “inactive”; as for `C#CCSc1nc2sc(C)c(C)c2c(=O)n1-c1ccc2c(c1)OCO2` [Compound 176], “inactive”; as for `C#CCSc1nc2sc(C)c(CC)c2c(=O)n1-c1ccc2c(c1)OCO2` [Compound 177], “inactive”. The same measure, in the same setting: as for `CCOc1ccc(-n2c(SC)nc3sc4c(c3c2=O)CCC4)cc1` [Compound 178], the entry is “inactive”. With `CCc1c(C)sc2nc(SCCO)n(-c3ccc4c(c3)OCO4)c(=O)c12` [Compound 180], the EC50 entry is “inactive”. Regarding `CCN1CCc2c(sc3nc(SC)n(-c4ccccc4)c(=O)c23)C1` [Compound 181], the 50% effective concentration (EC50) result is “inactive”.

In the case of `CSc1nc2sc3c(c2c(=O)n1-c1ccc(OC(F)(F)F)cc1)CCC3` [Compound 182], the concentration giving a half-maximal response (EC50) result is “inactive”.

Still in this test, the particulars now being: effective concentration for half-maximum response; inhibition of necroptosis in FADD-deficient Jurkat cells treated with TNFα; read-out: EC50.
As to `CCOc1ccc(-n2c(SCC#N)nc3sc(C)c(C)c3c2=O)cc1` [Compound 154], the EC50 stood at 7.77 µM. As to `Cc1sc2nc(SCC#N)n(-c3ccc(OC(F)(F)F)cc3)c(=O)c2c1C` [Compound 156], the EC50 turned out to be 3.7 µM. Still for that read-out and setting: the same measure for `N#CCSc1nc2sc3c(c2c(=O)n1-c1ccc(OC(F)(F)F)cc1)CCC3` [Compound 167]: 3.7 µM.

The same test, now with this note: max viability obtained in the presence of a compound; FADD-deficient Jurkat cells treated with TNFα.
Consider `CCOc1ccc(-n2c(SCC#N)nc3sc(C)c(C)c3c2=O)cc1` [Compound 154], for which the “Max Prot” value was 97%. Regarding `Cc1sc2nc(SCC#N)n(-c3ccc(OC(F)(F)F)cc3)c(=O)c2c1C` [Compound 156], the “Max Prot” value is 63%.

`N#CCSc1nc2sc3c(c2c(=O)n1-c1ccc(OC(F)(F)F)cc1)CCC3` [Compound 167]: the “Max Prot” value amounted to 70%.
